Measurements taken from patent US12673081B2, “Traditional CHINESE medicine compound composition with immune bidirectional regulation effect and preparation method and applications thereof” (Chenland Nutritionals Inc., priority 2020, dated 2026).

What was measured:
[1] = tested on: histamine, IgE, IL-4, IFN-γ, thromboxane B2 and leukotriene; assay: Final plasma cytokines of guinea pigs by ELISA; assay type: in vivo, guinea pig
Protocol: (§1) 1) After scoring on the second day after the last administration, guinea pigs were anesthetized by intraperitoneal injection of 10% chloral hydrate with the anesthetic dosage of 0.35 ml/100 g;
2) The abdominal cavity was opened, and a 5 ml sterile syringe was inserted into the abdominal vein of the guinea pig, and the venous blood was drawn;
(§2) 3) The drawn venous blood was put into a heparin tube, mixed well, and left in a chromatography freezer at 4° C. overnight.
(§3) 4) After centrifugation at 14000 rpm at 4° C. for 15 minutes, the supernatant was taken and stored at −80° C. for use.
1.6 The expression levels of cytokines in guinea pig serum and nasal lavage solution were detected by ELISA. The final serum and nasal lavage solution were taken for the determination of histamine, IgE, IL-4, IFN-γ, thromboxane B2 and leukotriene.
(§4) 1) taking out the ELISA kit from the refrigerator and balancing it at room temperature for 20 min;
(§5) 3) after sealing the film with a film sealing plate, placing it in a 37° C. incubator for incubation for 30 min;
4) discarding the liquid in the wells, gently spin drying it, and adding 50 μL biotin labeled antibody working solution to each well, and incubating in a 37° C. incubator for 30 min;
(§6) 5) carefully removing the sealing film, pouring out the liquid in the wells, gently spin drying it, adding washing liquid into each well, standing at room temperature for 30 seconds and then pouring it out, repeating this operation for 5 times and gently patting it dry;
(§7) 6) adding 50 μL horseradish peroxidase labeled avidin working solution to each well, and incubating in a 37° C. incubator for 30 min;
(§8) 7) pouring out the liquid in the wells, gently spin drying it, adding washing liquid into each well, standing at room temperature for 30 seconds and then pouring it out, repeating this operation for 5 times and gently patting it dry; and
8) adding 100 μL color developing solution to each well in turn, and developing color in a 37° C. incubator without light for […];
9) adding […] termination solution to each well to terminate the reaction, then zeroing the blank wells and measure the absorbance (OD value) of each well at 450 nm wavelength, where the determination shall be carried out within 15 min after the termination solution is added.

[2] = tested on: guinea pig model with allergic rhinitis; assay: Allergic rhinitis experiment: number and time points of deaths in each group; assay type: in vivo; conditions: surviving guinea pigs of 10 in group; D1 41, D2 45, D3 116, D4 116, D5 58, D6 116, D7 233, D8 16 mg/kg
Text: 100 guinea pigs were divided into 20 cages with 5 guinea pigs in each cage. After 7 days of adaptive growth without abnormalities, 90 guinea pigs were used for the construction and induction of allergic rhinitis model, and the remaining 10 guinea pigs were used for normal control. During the whole experiment, the animals were looked after and treated in strict accordance with the animal ethics law.
(§9) On the day of modeling, drugs were given by gavage. Each guinea pig was given once a day, and the Placebo group was given equal volume of drug solution every day for 4 weeks, i.e. 28 days.

[3] = tested on: nasal mucosa; assay: HE staining of final nasal mucosa of guinea pigs; assay type: in vivo, guinea pig; conditions: gavage 28 days, D1 41, D2 45, D3 116, D4 116, D5 58, D6 116, D7 233, D8 16 mg/kg
Protocol: as §1
2) After peeling off the nasal skin, the maxilla together with the nasal cavity were removed, and the bilateral nasal cavities were completely separated from the middle incisors;
3) The nasal mucosa was carefully removed and fixed with 4% paraformaldehyde for HE staining;
4) All the HE stained pathological sections were observed under the light microscope.
The mucosal tissues fixed in 4% glutaraldehyde solution were taken out and made into 5 μm thick paraffin sections for HE staining.
1) 60%, 70%, 80% and 90% gradient ethanol of the fixed sample were used to dehydrate for 8 h respectively;
2) 100% ethanol I and II were used to dehydrated for 1 h respectively;
3) The xylene I and II were used to make the specimens transparent for 15 min respectively;
4) The specimens were soaked in liquid paraffin and placed in a 65° C. oven for 2 h;
5) The soaked paraffin specimens were taken out and embedded in paraffin;
6) The paraffin was cut into 5 μm thick sections and subjected to HE staining.
1) Xylene I and II for 15 min respectively;
2) Gradient ethanol hydration to distilled water;
3) Hematoxylin staining for 5 min;
4) Differentiation with 1% hydrochloric acid and ethanol for 1 min; […]

[4] = tested on: guinea pig model with allergic rhinitis; assay: Allergic rhinitis experiment: symptom observation (nose scratching, sneezing, symptom score) after OVA nasal instillation; assay type: in vivo; conditions: guinea pigs, gavage 28 days, D1 41, D2 45, D3 116, D4 116, D5 58, D6 116, D7 233, D8 16 mg/kg
Text: as §9

[5] = tested on: eosinophils in nasal lavage solution; assay: Counting of eosinophils in nasal lavage solution; assay type: in vivo, guinea pig; conditions: guinea pigs
Protocol: as §1
2) The guinea pig was fixed in a supine and low head position, the normal saline was slowly dropped into one nasal cavity at the rate of 1 ml/min, and the contralateral nasal cavity was continuously pumped with low negative pressure;
3) A small amount of the recovered lavage solution was taken immediately and put into a leukocyte counting plate to count the total number of leukocytes;
4) The remaining lavage solution was added with EDTA ([…]) and centrifuged at 14000 rpm at 4° C. for 15 minutes. And the supernatant was stored at −80° C. for use.

[6] = tested on: cold model of immunocompromised rats; assay: Cold model of immunocompromised rats induced by cyclophosphamide: body temperature; assay type: in vivo, rat; conditions: SD rats cold model, Sample-1 150, Sample-2 75, Sample-3/-4/-5 150, Sample-6 30 mg/kg
Text: (§10) […] were divided into 20 cages, 5 SD rats in each cage, 2 cages in each group, 1 cage for male and female respectively. After 7 days of adaptive growth, 70 rats were used for drug administration evaluation and the construction of rat upper respiratory tract infection model, and the remaining 10 rats were used for normal control. During the whole experiment, the animals were looked after and treated in strict accordance with the animal ethics law.
(§11) After the adaptive growth, the drug was given by gavage once a day for each SD rat. The Placebo group and the normal control group were given the same volume of drug solution (i.e. normal saline) every day for 4 weeks, i.e. 28 days.
(§12) 1) On the 14th day after gavage administration, rats in the model group were intraperitoneally injected with cyclophosphamide for 3 consecutive days and strengthened once on the 20th day to prepare the immunosuppressive model.
(§13) 2) On the 21st day, after the rats were placed in a low temperature environment overnight (4° C.), the cold symptoms such as burnout, decreased food intake and increased nasal secretion were found, which was regarded as successful modeling.
(§14) 3) During the period of normal administration, the administration was ended on the 28th day, and the rats were killed.
(§15) The body weight of rats was measured once a week. During the administration, the general conditions, behavioral characteristics and death status of rats in each group, such as appetite, hair color and body posture, were observed. Nasal secretion and body temperature were observed ever day.

[7] = Cold model of immunocompromised rats induced by cyclophosphamide: body weight; assay type: in vivo, rat; conditions: SD rats, Sample-1 150, Sample-2 75, Sample-3/-4/-5 150, Sample-6 30 mg/kg
Text: as §10, §11, §12, §13, §14, §15

[8] = tested on: IL-1β, IFN-γ, IgG, IgM, sIgA; assay: Cold model rats: cytokines in serum and saliva by ELISA; assay type: in vivo, rat; conditions: SD rats cold model, gavage 28 days, Sample-1 150, Sample-2 75, Sample-3/-4/-5 150, Sample-6 30 mg/kg
Protocol: 1) On the second day after the last administration, the rats were anesthetized by intraperitoneal injection of 10% chloral hydrate with the anesthetic dosage of 0.35 ml/100 g;
2) The abdominal cavity was opened, and a 5 ml sterile syringe was inserted into the abdominal vein of the rats, and the venous blood was drawn:
as §2, §3
2) SD rats were fixed in the supine and low head position, sterile cotton swabs were inserted into the upper respiratory tract of rats, dipped in rat saliva, and immediately placed in precooled normal saline and stored at −80° C. for use.
The final serum was used for IL-1β, IL-6, IL-12, IFN-γ, IgG, IgM, and saliva was used for the determination of sIgA. The determination steps were as follows:
as §4, §5
4) discarding the liquid in the wells, gently drying it, and adding 50 μL biotin labeled antibody working solution to each well, and incubating in a 37° C. incubator for 30 min;
as §6, §7, §8
8) adding […] color developing solution to each well in turn, and developing color in a 37° C. incubator without light for 15 min;
9) adding 50 μL termination solution to each well to terminate the reaction, then zeroing the blank wells and measure the absorbance (OD value) of each well at 450 nm wavelength, where the determination shall be carried out within 15 min after the termination solution is added.

[9] = final plasma, gavage 28 days, D1 41, D2 45, D3 116, D4 116, D5 58, D6 116, D7 233, D8 16 mg/kg

Structure (SMILES): CCOC(=O)N1CCC(=C2c3ccc(Cl)cc3CCc3cccnc32)CC1 [D8, Loratadine]
- Histamine [1, 9]: 23.78 ± 3.86 ng/mL
- IFN-γ [1, 9]: 113.74 ± 12.59 pg/mL
- IL-4 [1, 9]: 138.64 ± 39.91 pg/mL
- IgE [1, 9]: 41.86 ± 7.34 ng/mL
- LTB4 [1, 9]: 32.00 ± 6.71 ng/mL
- TXB2 [1, 9]: 24.86 ± 4.5 ng/mL
- contents of TXB2 and TLB4 in nasal lavage solution versus model control group ([1]; p<0.05): significant difference compared with the model control group
- serum IgE content versus model group ([1]; significantly different from model group (p<0.05)): reduce the serum IgE content
- Final number [2]: 8
- Number after enhanced sensitization [2]: 8
- Number after nasal instillation [2]: 8
- pathological analysis of HE stained nasal mucosa [3]: the inflammatory reaction in nasal mucosa of guinea pigs was significantly reduced
- nose scratching times decreased compared with the model group [4]: 57.0%
- sneeze times decreased compared with the model group [4]: 54.4%
- Final scoring of symptom observation ([4]; score 1-3 per Table 2): 1.50 ± 0.50
- number of eosinophils in nasal lavage solution decreased compared with the model group ([5]; D1 41, D2 45, D3 116, D4 116, D5 58, D6 116, D7 233, D8 16 mg/kg): 52.2%
- number of eosinophils in nasal lavage solution compared with the model group ([5]; D8 16 mg/kg, p<0.01): decreased significantly
- Number of eosinophils ([5]; nasal lavage solution, gavage 28 days, D1 41, D2 45, D3 116, D4 116, D5 58, D6 116, D7 233, D8 16 mg/kg): 3.50 ± 1.12 PCs./ml

Structure (SMILES): O=C1O[C@H]([C@@H](O)CO)C(O)=C1O [Sample-6, VC]
- temperature Day 15 ([6]; Day 15): 36.84 ± 0.22
- temperature Day 16 ([6]; Day 16): 36.78 ± 0.48
- temperature Day 17 ([6]; Day 17): 36.9 ± 0.33
- temperature Day 18 ([6]; Day 18): 36.6 ± 0.19
- temperature Day 19 ([6]; Day 19): 36.63 ± 0.28
- temperature Day 20 ([6]; Day 20): 36.69 ± 0.22
- temperature Day 21 ([6]; Day 21): 36.41 ± 0.3
- temperature Day 22 ([6]; Day 22): 37.89 ± 0.53
- temperature Day 23 ([6]; Day 23): 38.23 ± 0.64
- temperature Day 24 ([6]; Day 24): 38.11 ± 0.56
- temperature Day 25 ([6]; Day 25): 37.87 ± 0.4
- temperature Day 26 ([6]; Day 26): 37.41 ± 0.4
- temperature Day 27 ([6]; Day 27): 37.32 ± 0.28
- temperature Day 28 ([6]; Day 28): 37.62 ± 0.31
- weight week 1 ([7]; week 1): 200.37 ± 8.23 g
- weight week 2 ([7]; week 2): 217.99 ± 12.26 g
- weight week 3 ([7]; week 3): 193.64 ± 12.51 g
- weight week 4 ([7]; week 4): 173.58 ± 7.48 g
- weight week 0 ([7]; gavage once a day 28 days, week 0): 184.61 ± 7.84 g
- serum IFN-γ content ([8]; final serum): 170.49 ± 21.44 pg/mL
- serum IL-β content ([8]; final serum): 100.12 ± 27.51 pg/mL
- serum IgG content ([8]; final serum): 606.77 ± 259.06 µg/mL
- serum IgM content ([8]; final serum): 177.1 ± 35.59 µg/mL
- saliva sIgA content ([8]; upper respiratory tract saliva): 13.9 ± 4.08 µg/mL
